According to patent publication US6320051A, “Quinolones used as MRS inhibitors and bactericides” (SmithKline Beecham plc, priority 1998, dated 2001):
In brackets after ≈: the same amount, converted by molar mass. Where a name gives a salt, the structure may show the parent alone. Read-outs that look alike come from different tables or passages of the source.

Experiments:
M. Catarrhalis = assay: Antibacterial activity, standard MIC assay modified by inclusion of cyclodextrin; assay type: cell-based; details: Moraxella catarrhalis; MIC assay with cyclodextrin; range over the listed Examples; read-out: MIC against M. Catarrhalis
Procedure: (§1) Compounds of the present invention were assayed for antibacterial activity against a range of pathogenic organisms (strains of S aureus, S pneumoniae, E faecalis, H influenzae and M catarrhalis) in a standard MIC assay modified by the inclusion of cyclodextrin, to assist with solubility.

[1] = tested on: S. aureus, S. pneunmoniae, and E. faecalis; assay: as above; assay type: cell-based; details: read-out: MIC against some strains of S. aureus, S. pneumoniae and E. faecalis
Procedure: as §1

H. influenzae = assay: as above; assay type: cell-based; details: MIC assay with cyclodextrin
Procedure: as §1

[2] = tested on: isoleucyl t-RNA synthetase; details: background of the invention; cited from earlier work
[3] = some strains of the organisms, MIC assay with cyclodextrin

## O=c1cc(NCCCNCc2cc3c(Cl)cc(Cl)cc3[nH]2)[nH]c2ccccc12 [Example 76, 2-[3-(4,6-Dichloroindol-2-ylmethylamino)prop-1-ylamino]-1H-quinolin-4-one]
M. Catarrhalis
  MIC: 2 to 64 µg/mL (≈ 4.82 to 154 µM)
[1]; [3]
  MIC: < 1 µg/mL

## O=c1cc(NCCCNCc2cc(Br)cc(Br)c2)[nH]c2ccccc12 [Example 40, 2-[3-(3,5-Dibromobenzylamino)prop-1-ylamino]-1H-quinolin-4-one]
M. Catarrhalis
  MIC: 2 to 64 µg/mL (≈ 4.3 to 138 µM)
[1]; [3]
  MIC: < 1 µg/mL

## O=c1cc(NC[C@H]2CCC[C@@H]2NCc2cc(Br)cc(Br)c2)[nH]c2ccccc12 [Example 73, 2-{[(1R,2S)-2-(3,5-Dibromobenzylamino)cyclopentyl-methyl]amino}-1H-quinolin-4-one]
M. Catarrhalis
  MIC: 2 to 64 µg/mL (≈ 3.96 to 127 µM)
[1]; [3]
  MIC: < 1 µg/mL

## CCOc1c(Br)cc(Br)cc1CNCCCNc1cc(=O)c2ccccc2[nH]1.Cl.Cl [Example 46, 2-[3-(3,5-Dibromo-2-ethoxybenzylamino)prop-1-ylamino]-1H-quinolin-4-one dihydrochloride]
M. Catarrhalis
  MIC: 2 to 64 µg/mL
[1]; [3]
  MIC: < 1 µg/mL

## O=c1cc(NC[C@H]2CCC[C@@H]2NCc2ccc(Cl)c(Cl)c2)[nH]c2ccccc12 [Example 71, 2-{[(1R,2S)-2-(3,4-Dichlorobenzylamino)cyclopentylmethyl]amino}-1H-quinolin-4-one]
M. Catarrhalis
  MIC: 2 to 64 µg/mL (≈ 4.8 to 154 µM)
[1]
  MIC: < 1 µg/mL

## O=c1cc(NCCCNC2CCc3c(Cl)cc(Cl)cc32)[nH]c2ccccc12 (stereo not shown) [Example 55, 2-[3-(4,6-Dichloroindan-1-ylamino)prop-1-ylamino]-1H-quinolin-4-one]
M. Catarrhalis
  MIC: 2 to 64 µg/mL (≈ 4.97 to 159 µM)
[1]
  MIC: < 1 µg/mL

## CCOc1c(Br)cc(Br)cc1CN[C@H]1CCC[C@@H]1CNc1cc(=O)c2ccccc2[nH]1 [Example 75, 2-{[(1R,2S)-2-(3,5-Dibromo-2-ethoxybenzylamino)cyclopentyl-methyl]amino}-1H-quinolin-4-one]
M. Catarrhalis
  MIC: 2 to 64 µg/mL (≈ 3.64 to 117 µM)
[1]; [3]
  MIC: < 1 µg/mL

## O=c1cc(NCCCNC2CCCc3c2[nH]c2ccccc32)[nH]c2ccccc12 (stereo not shown) [Example 64, 2-[3-(2,3,4,9-Tetrahydro-1H-carbazol-1-ylamino)prop-1-ylamino]-1H-quinolin-4-one]
H. influenzae
  antibacterial activity against H. influenzae: active

## O=c1cc(NCCCNCc2cc(Br)c(Br)s2)[nH]c2ccccc12 [Example 37]
M. Catarrhalis
  MIC: 2 to 64 µg/mL (≈ 4.24 to 136 µM)
[1]; [3]
  MIC: < 1 µg/mL

## C/C(=C\C(=O)OCCCCCCCCC(=O)O)C[C@@H]1OC[C@H](C[C@@H]2O[C@H]2[C@@H](C)[C@H](C)O)[C@@H](O)[C@H]1O [Mupirocin]
[2]
  inhibition of isoleucyl t-RNA synthetase: inhibitor

## Cl.O=c1cc(NCCCNCc2ccc(Cl)c(Cl)c2)[nH]c2ccccc12 [Example 18, 2-[3-(3,4-Dichlorobenzylamino)prop-1-ylamino]-1H-quinolin-4-one hydrochloride]
M. Catarrhalis
  MIC: 2 to 64 µg/mL
[1]
  MIC: < 1 µg/mL

## O=c1cc(NCC2CCCC2NCc2ccc(Cl)c(Cl)c2)[nH]c2ccccc12 (stereo not shown) [Example 60, 2-{[2-(3,4-Dichlorobenzylamino)cyclopentyl]methylamino}-1H-quinolin-4-one]
M. Catarrhalis
  MIC: 2 to 64 µg/mL (≈ 4.8 to 154 µM)
[1]
  MIC: < 1 µg/mL

## O=c1cc(NCCCNC2CCCc3c2cc(Cl)c(Cl)c3Cl)[nH]c2ccccc12 (stereo not shown) [Example 53, 2-[3-(5,6,7-Trichloro-1,2,3,4-tetrahydronaphth-1-ylamino)prop-1-ylamino]-1H-quinolin-4-one]
M. Catarrhalis
  MIC: 2 to 64 µg/mL (≈ 4.44 to 142 µM)
[1]
  MIC: < 1 µg/mL

## O=c1cc(NCCCNCc2ccc(Cl)c(C(F)(F)F)c2)[nH]c2ccccc12 [Example 38, 2-[3-(4-Chloro-3-trifluoromethylbenzylamino)prop-1-ylamino]-1H-quinolin-4-one]
M. Catarrhalis
  MIC: 2 to 64 µg/mL (≈ 4.88 to 156 µM)
[1]; [3]
  MIC: < 1 µg/mL

## O=c1cc(NCCCNC2CCCc3c(Cl)cc(Cl)cc32)[nH]c2ccccc12 (stereo not shown) [Example 51, 2-[3-(5,7-Dichloro-1,2,3,4-tetrahydronaphth-1-ylamino)prop-1-ylamino]-1H-quinolin-4-one]
M. Catarrhalis
  MIC: 2 to 64 µg/mL (≈ 4.8 to 154 µM)
[1]
  MIC: < 1 µg/mL

## O=c1cc(NCCCNC2CCc3c(Cl)sc(Cl)c32)[nH]c2ccccc12 (stereo not shown) [Example 47, 2-[3-(1,3-Dichloro-5,6-dihydro-4H-cyclopenta[c]thiophen-4-ylamino]prop-1-ylamino}-1H-quinolin-4-one]
M. Catarrhalis
  MIC: 2 to 64 µg/mL (≈ 4.9 to 157 µM)
[1]; [3]
  MIC: < 1 µg/mL

## Nc1c(Br)cc(Br)cc1CNCCCNc1cc(=O)c2ccccc2[nH]1 [Example 77, 2-[3-(2-Amino-3,5-dibromobenzylamino)prop-1-ylamino]-1H-quinolin-4-one]
M. Catarrhalis
  MIC: 2 to 64 µg/mL (≈ 4.16 to 133 µM)
[1]; [3]
  MIC: < 1 µg/mL

## CC(C)(C)OC(=O)COc1c(Cl)cc(Cl)cc1CNCCCNc1cc(=O)c2ccccc2[nH]1 [Example 67, 2-[3-(2-tert-Butoxycarbonylmethoxy-3,5-dichlorobenzylamino)prop-1-ylamino]-1H-quinolin-4-one]
M. Catarrhalis
  MIC: 2 to 64 µg/mL (≈ 3.95 to 126 µM)
[1]; [3]
  MIC: < 1 µg/mL

## O=c1cc(NCCCNCc2cc(Br)cc(I)c2)[nH]c2ccccc12 [Example 43, 2-[3-(3-Bromo-5-iodobenzylamino)prop-1-ylamino]-1H-quinolin-4-one]
M. Catarrhalis
  MIC: 2 to 64 µg/mL (≈ 3.9 to 125 µM)
[1]; [3]
  MIC: < 1 µg/mL

## Cc1c(Br)cc(CNCCCNc2cc(=O)c3ccccc3[nH]2)cc1Br [Example 41, 2-[3-(3,5-Dibromo-4-methylbenzylamino)prop-1-ylamino]-1H-quinolin-4-one]
M. Catarrhalis
  MIC: 2 to 64 µg/mL (≈ 4.17 to 134 µM)
[1]; [3]
  MIC: < 1 µg/mL

## O=c1cc(NCCCNCc2cc(I)cc(I)c2)[nH]c2ccccc12 [Example 36, 2-[3-(3,5-Diiodobenzylamino)prop-1-ylamino]-1H-quinolin-4-one]
M. Catarrhalis
  MIC: 2 to 64 µg/mL (≈ 3.58 to 114 µM)
[1]; [3]
  MIC: < 1 µg/mL

## C=CCOc1c(Cl)cc(Cl)cc1CNCCCNc1cc(=O)c2ccccc2[nH]1 [Example 68, 2-[3-(2-Allyloxy-3,5-dichlorobenzylamino)prop-1-ylamino]-1H-quinolin-4-one]
M. Catarrhalis
  MIC: 2 to 64 µg/mL (≈ 4.63 to 148 µM)
[1]; [3]
  MIC: < 1 µg/mL

## O=c1cc(NCCCNCc2cc(Br)c(Br)c(Br)c2)[nH]c2ccccc12 [Example 42, 2-[3-(3,4,5-Tribromobenzylamino)prop-1-ylamino]-1H-quinolin-4-one]
M. Catarrhalis
  MIC: 2 to 64 µg/mL (≈ 3.68 to 118 µM)
[1]; [3]
  MIC: < 1 µg/mL

## O=c1cc(NCCCNCc2cc(Cl)cc(Cl)c2OCCc2ccccc2)[nH]c2ccccc12 [Example 69, 2-[3-(3,5-Dichloro-2-phenethoxybenzylamino)propylamino]-1H-quinolin-4-one]
M. Catarrhalis
  MIC: 2 to 64 µg/mL (≈ 4.03 to 129 µM)
[1]; [3]
  MIC: < 1 µg/mL

## O=c1cc(NCCCNCc2cc(Cl)cc(Cl)c2Cl)[nH]c2ccccc12 [Example 45, 2-[3-(2,3,5-Trichliorobenzylamino)prop-1-ylamino]-1H-quinolin-4-one dihydrochloride]
M. Catarrhalis
  MIC: 2 to 64 µg/mL
[1]; [3]
  MIC: < 1 µg/mL

## O=c1cc(NCCCNCc2cc(Cl)cc(Cl)c2OCc2ccccc2)[nH]c2ccccc12 [Example 39, 2-[3-(2-Benzyloxy-3,5-dichlorobenzylamino)prop-1-ylamino]-1H-quinolin-4-one]
M. Catarrhalis
  MIC: 2 to 64 µg/mL (≈ 4.15 to 133 µM)
[1]; [3]
  MIC: < 1 µg/mL

## O=c1cc(NC[C@H]2CCC[C@@H]2NCc2cc(Br)c(Br)s2)[nH]c2ccccc12 [Example 74, 2-{[(1R,2S)-2-(4,5-Dibromo-2-thiophenemethylamino)-cyclopentylmethyl]amino}-1H-quinolin-4-one]
M. Catarrhalis
  MIC: 2 to 64 µg/mL (≈ 3.91 to 125 µM)
[1]; [3]
  MIC: < 1 µg/mL
